From US8748426B2, “Inhibitors of diacylglycerol acyl transferase” (Piramal Enterprises Limited, priority 2009, dated 2014) come the findings set out here.

The test has as its target T1, hDGAT1 (Homo sapiens, UniProt O75907).
T1 sequence (O75907 1-488): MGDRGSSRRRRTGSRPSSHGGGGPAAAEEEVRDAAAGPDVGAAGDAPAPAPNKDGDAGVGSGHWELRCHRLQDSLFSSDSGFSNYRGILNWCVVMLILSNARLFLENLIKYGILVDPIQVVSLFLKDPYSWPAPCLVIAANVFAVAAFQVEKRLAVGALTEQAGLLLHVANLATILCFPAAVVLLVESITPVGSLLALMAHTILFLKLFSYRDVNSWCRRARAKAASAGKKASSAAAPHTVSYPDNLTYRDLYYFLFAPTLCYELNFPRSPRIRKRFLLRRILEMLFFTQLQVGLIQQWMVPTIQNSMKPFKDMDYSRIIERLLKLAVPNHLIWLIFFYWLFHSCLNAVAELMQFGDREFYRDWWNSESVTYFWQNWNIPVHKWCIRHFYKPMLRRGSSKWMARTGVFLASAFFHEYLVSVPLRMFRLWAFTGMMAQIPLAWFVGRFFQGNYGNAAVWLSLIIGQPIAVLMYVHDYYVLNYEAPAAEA
Put plainly: In-vitro DGAT1 assay (14C oleoyl CoA, hDGAT1 microsomes from Sf9 cells). The following applies: for inhibition at 1 µM: read-out: % Inhibition of hDGAT1; for % Inhibition of hDGAT1: at 1 μM.

For `O=C(Nc1ccc(-c2ccc3c(c2)C(=O)N(C2(C(=O)O)CC2)C3)cc1)c1ccc(C(F)(F)F)cc1` [Example 590, 1-(1-Oxo-6-(4-(4-(trifluoromethyl)benzamido)phenyl)isoindolin-2-yl)cyclo propane carboxylic acid], the inhibition (in general, the share of the control response that was lost under treatment) at 1 µM was greater than 50%. Regarding `O=C(Nc1ccc(-c2ccc3c(c2)C(=O)N([C@@H]2CCC[C@@H]2C(=O)O)C3)cc1)c1ccc(-c2ccccc2)cc1` [Example 594, (1S,2R)-2-(6-(4-([1,1′-Biphenyl]-4-ylcarboxamido)phenyl)-1-oxoisoindolin-2-yl)cyclopentanecarboxylic acid], the “% Inhibition of hDGAT1” value was “++ (>50% Inhibition)”.

On to `O=C(Nc1ccc(-c2ccc3c(c2)C(=O)N([C@@H]2CCC[C@@H]2C(=O)O)C3)cc1)c1ccc(Cl)cc1` [Example 596, (1S,2R)-2-(6-(4-(4-Chlorobenzamido)phenyl)-1-oxoisoindolin-2-yl)cyclopentane carboxylic acid], for which the inhibition at 1 µM was greater than 50%. As for `O=C(Nc1ccc(-c2ccc3c(c2)C(=O)N([C@@H]2CCC[C@@H]2C(=O)O)C3)cc1)c1ccc(C(F)(F)F)cc1` [Example 598, (1S,2R)-2-(1-Oxo-6-(4-(4-(trifluoromethyl)benzamido)phenyl)isoindolin-2-yl)cyclopentanebcarboxylic acid], the “% Inhibition of hDGAT1” value was “++ (>50% Inhibition)”. Take `CC(C)[C@@H](C(=O)O)N1Cc2ccc(-c3ccc(NC(=O)c4ccc(-c5ccccc5)cc4)cc3F)cc2C1=O` [Example 602, (S)-2-(6-(4-([1,1′-Biphenyl]-4-ylcarboxamido)-2-fluorophenyl)-1-oxoisoindolin-2-yl)-3-methylbutanoic acid]: the “% Inhibition of hDGAT1” value is “++ (>50% Inhibition)”. As to `CC(C)[C@@H](C(=O)O)N1Cc2ccc(-c3ccc(NC(=O)c4ccc(C(C)(C)C)cc4)cc3F)cc2C1=O` [Example 604, (S)-2-(6-(4-(4-(tert-Butyl)benzamido)-2-fluorophenyl)-1-oxoisoindolin-2-yl)-3-methylbutanoic acid], the inhibition at 1 µM is greater than 50%. Take `CC(C)[C@@H](C(=O)O)N1Cc2ccc(-c3ccc(NC(=O)c4ccc(Cl)cc4)cc3F)cc2C1=O` [Example 606, (S)-2-(6-(4-(4-Chlorobenzamido)-2-fluorophenyl)-1-oxoisoindolin-2-yl)-3-methyl butanoic acid]: the inhibition at 1 µM is 10 to 50%. On to `CC(C)[C@@H](C(=O)O)N1Cc2ccc(-c3ccc(NC(=O)c4ccc(OC(F)(F)F)cc4)cc3F)cc2C1=O` [Example 608, (S)-2-(6-(2-Fluoro-4-(4-(trifluoromethoxy)benzamido)phenyl)-1-oxoisoindolin-2-yl)-3-methylbutanoic acid], for which the inhibition at 1 µM is greater than 50%. For the molecule `CCCCCc1ccc(C(=O)Nc2ccc(-c3ccc4c(c3)C(=O)N([C@H](C(=O)O)C(C)C)C4)c(F)c2)cc1` [Example 610, (S)-2-(6-(2-Fluoro-4-(4-pentylbenzamido)phenyl)-1-oxoisoindolin-2-yl)-3-methyl butanoic acid], the inhibition at 1 µM was greater than 50%. On to `CC(C)[C@@H](C(=O)O)N1Cc2ccc(-c3ccc(NC(=O)c4ncc(-c5ccccc5)s4)cc3)cc2C1=O` [Example 612, (S)-3-Methyl-2-(1-oxo-6-(4-(5-phenylthiazole-2-carboxamido)phenyl)isoindolin-2-yl)butanoic acid], for which the inhibition at 1 µM is greater than 50%. Take `CC(C)[C@@H](C(=O)O)N1Cc2ccc(-c3ccc(NC(=O)c4ncc(-c5ccccc5)o4)cc3)cc2C1=O` [Example 614, (S)-3-Methyl-2-(1-oxo-6-(4-(5-phenyloxazole-2-carboxamido)phenyl)isoindolin-2-yl)butanoic acid]: the inhibition at 1 µM is greater than 50%. For the molecule `CC(C)[C@@H](C(=O)O)N1Cc2ccc(-c3ccc(NC(=O)c4cc(-c5ccc(F)cc5)no4)cc3)cc2C1=O` [Example 616, (S)-2-(6-(4-(3-(4-Fluorophenyl)isoxazole-5-carboxamido)phenyl)-1-oxoisoindolin-2-yl)-3-methylbutanoic acid], the inhibition at 1 µM was greater than 50%.
